Experiments:
[1] = target: T1, Solute carrier organic anion transporter family member 1B3 (Homo sapiens, UniProt Q9NPD5)
T1 sequence (Q9NPD5 whole entry): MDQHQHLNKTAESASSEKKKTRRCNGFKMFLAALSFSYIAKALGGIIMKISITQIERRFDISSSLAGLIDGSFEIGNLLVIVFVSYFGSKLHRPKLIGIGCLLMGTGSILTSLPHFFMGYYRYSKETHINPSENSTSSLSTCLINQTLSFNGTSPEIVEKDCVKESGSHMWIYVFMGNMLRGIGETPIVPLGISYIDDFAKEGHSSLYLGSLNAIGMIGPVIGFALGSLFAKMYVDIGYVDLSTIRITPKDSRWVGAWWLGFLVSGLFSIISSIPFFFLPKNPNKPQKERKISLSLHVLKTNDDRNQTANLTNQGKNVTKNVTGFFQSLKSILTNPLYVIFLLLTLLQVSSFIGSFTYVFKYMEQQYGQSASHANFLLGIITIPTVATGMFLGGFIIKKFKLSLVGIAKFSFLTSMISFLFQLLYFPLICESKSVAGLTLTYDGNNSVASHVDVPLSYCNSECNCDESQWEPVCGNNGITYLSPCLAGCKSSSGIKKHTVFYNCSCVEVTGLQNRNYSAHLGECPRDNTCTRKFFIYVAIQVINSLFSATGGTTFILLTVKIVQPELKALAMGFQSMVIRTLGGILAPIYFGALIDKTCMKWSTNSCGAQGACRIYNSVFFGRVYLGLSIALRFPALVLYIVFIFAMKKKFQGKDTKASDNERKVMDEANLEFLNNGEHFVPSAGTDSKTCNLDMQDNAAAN

[2] = target: ATP-binding cassette sub-family C member 2 (Homo sapiens, UniProt Q92887)
Sequence of ATP-binding cassette sub-family C member 2 (Q92887 whole entry): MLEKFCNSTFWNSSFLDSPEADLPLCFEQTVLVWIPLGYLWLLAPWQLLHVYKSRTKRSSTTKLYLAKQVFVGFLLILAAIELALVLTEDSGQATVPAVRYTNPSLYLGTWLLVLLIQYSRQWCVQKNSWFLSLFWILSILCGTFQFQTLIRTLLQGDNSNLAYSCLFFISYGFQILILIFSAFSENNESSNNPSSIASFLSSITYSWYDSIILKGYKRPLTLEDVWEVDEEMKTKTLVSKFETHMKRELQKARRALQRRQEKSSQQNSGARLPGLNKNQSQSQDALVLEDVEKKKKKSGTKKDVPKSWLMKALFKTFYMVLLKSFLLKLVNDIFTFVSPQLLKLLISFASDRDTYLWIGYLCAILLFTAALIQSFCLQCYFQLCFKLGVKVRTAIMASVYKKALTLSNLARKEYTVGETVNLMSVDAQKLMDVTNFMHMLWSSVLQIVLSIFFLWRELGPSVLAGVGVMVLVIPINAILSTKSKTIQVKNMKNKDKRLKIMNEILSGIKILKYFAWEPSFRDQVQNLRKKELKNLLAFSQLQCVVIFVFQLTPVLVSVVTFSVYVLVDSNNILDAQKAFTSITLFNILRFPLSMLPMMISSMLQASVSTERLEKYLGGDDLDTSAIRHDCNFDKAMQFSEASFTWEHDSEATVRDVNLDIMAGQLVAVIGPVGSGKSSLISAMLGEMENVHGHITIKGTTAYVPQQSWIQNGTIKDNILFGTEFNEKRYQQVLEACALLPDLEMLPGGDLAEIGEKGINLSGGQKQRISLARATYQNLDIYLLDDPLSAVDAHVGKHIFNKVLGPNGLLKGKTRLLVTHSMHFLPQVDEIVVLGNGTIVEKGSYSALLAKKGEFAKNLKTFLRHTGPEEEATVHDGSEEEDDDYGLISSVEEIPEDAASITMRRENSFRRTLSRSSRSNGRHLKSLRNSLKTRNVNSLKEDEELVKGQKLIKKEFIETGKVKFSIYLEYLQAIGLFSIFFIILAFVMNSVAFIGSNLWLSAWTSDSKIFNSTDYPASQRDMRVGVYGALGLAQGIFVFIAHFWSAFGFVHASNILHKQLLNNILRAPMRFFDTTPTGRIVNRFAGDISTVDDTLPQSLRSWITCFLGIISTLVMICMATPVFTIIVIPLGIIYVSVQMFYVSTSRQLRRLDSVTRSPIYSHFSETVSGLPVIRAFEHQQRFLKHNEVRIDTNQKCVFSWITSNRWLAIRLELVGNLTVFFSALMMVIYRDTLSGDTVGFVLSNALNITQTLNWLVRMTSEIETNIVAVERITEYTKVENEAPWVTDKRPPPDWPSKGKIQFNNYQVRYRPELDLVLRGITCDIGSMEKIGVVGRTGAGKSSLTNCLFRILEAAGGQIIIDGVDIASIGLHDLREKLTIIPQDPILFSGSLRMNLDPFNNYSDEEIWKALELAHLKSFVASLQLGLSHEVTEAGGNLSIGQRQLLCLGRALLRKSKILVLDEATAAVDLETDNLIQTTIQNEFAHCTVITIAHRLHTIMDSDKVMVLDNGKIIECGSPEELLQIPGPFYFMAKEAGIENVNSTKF

For `CN(C)C(=O)CCSC(SCCC(=O)O)c1cccc(C=Cc2ccc3ccc(Cl)cc3n2)c1` (configuration not stated) [NSC_60719], the Ki [1] was 0.6 µM and the Ki [2] was 8.5 µM.

Reference: BindingDB's records for doi:10.1124/jpet.104.081224 (German Cancer Research Center, 2005)
